# According to patent US10271734B2, “Photoacoustic apparatus” (CANON KABUSHIKI KAISHA, priority 2015, dated 2019):
# Legend:
# [1] = Temporal change in blood ICG concentration after tail vein injection into a nude mouse (FIG. 2); assay type: in vivo; conditions: ICG 20 nanomoles
# Experimental: FIG. 2 is a diagram illustrating a temporal change in the concentration of the contrast agent 1012 in the blood when ICG (20 nanomoles) which is the contrast agent 1012 was injected into a tail vein of a nude mouse. The vertical axis of FIG. 2 represents the blood ICG concentration and the horizontal axis represents the time elapsed after the contrast agent 1012 was injected to the nude mouse.
# [2] = J Clin Invest., 1960 April, 39(4): p. 592-600; cited from earlier work
smiles,measurement,setting,value
"CC1(C)C(/C=C/C=C/C=C/C=C2\N(CCCCS(=O)(=O)O)c3ccc4ccccc4c3C2(C)C)=[N+](CCCCS(=O)(=O)[O-])c2ccc3ccccc3c21 [ICG, Indocyanine green]",time after injection within which the concentration of ICG present in the blood decreases to a half or smaller,[1],≤ 10 min
same,half-life of ICG in the blood,[2],approximately 3 minutes
